Patent publication US20260364184A1, “COMPOUND BASED ON OXOISOINDOLINYL-SUBSTITUTED TETRAHYDROPYRIMIDINE-DIONE AND USE THEREOF” (GLUETACS THERAPEUTICS (SHANGHAI) CO., LTD., priority 2023, published 2026)

Key:
[1] = tested on: Human myeloid monocytic leukemia cell line (MV-4-11); experiment: Inhibition of MV-4-11 cell proliferation (CellTiter luminescent viability); format: cell-based; settings: Homo sapiens, MV4-11, Table IA3, IRAK4 inhibitor-based, 96 hours; for inhibition at 0.01 µM: MV-4-11, 10 nM, read-out: Inhibition Rate at 10 nM (%); for inhibition at 0.5 µM: MV-4-11, 500 nM, read-out: Inhibition Rate at 500 nM (%)
In short: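 Cells are seeded in 96-well plates, cultured at 37 °C, 5% CO2, and treated next day with 5-fold serial compound dilutions (stock series from 2000 μM; 0.5 μL into 100 μL medium). Viability is read by CellTiter-Meiluncell luminescence after the set exposure, and IC50 is taken from growth-inhibition curves.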

[2] = molecular target: T1, IRAK4 (Homo sapiens, UniProt Q9NWZ3); experiment: Western blot degradation of IRAK4; format: cell-based; settings: hPBMC Cell; 24 hours
T1 construct: expression of target proteins in cells; endogenous in cells
T1 sequence (Q9NWZ3 1-460): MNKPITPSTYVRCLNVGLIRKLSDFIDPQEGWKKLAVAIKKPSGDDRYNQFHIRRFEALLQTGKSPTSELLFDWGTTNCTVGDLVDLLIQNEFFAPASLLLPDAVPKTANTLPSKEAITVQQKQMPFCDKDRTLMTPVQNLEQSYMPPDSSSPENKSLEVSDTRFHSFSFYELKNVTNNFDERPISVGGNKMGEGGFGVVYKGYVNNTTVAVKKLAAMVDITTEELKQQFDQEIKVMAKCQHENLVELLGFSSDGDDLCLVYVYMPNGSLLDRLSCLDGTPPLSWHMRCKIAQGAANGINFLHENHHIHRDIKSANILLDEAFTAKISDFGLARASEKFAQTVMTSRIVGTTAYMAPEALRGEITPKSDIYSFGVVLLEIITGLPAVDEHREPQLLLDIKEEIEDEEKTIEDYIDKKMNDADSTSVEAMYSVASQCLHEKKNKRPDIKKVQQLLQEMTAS
Procedure: Conventional Western blot assay was performed to evaluate the effects of the compounds of the present disclosure on the expression of target proteins in cells.
(1) Cell Seeding and Protein Harvesting: The selected cells were processed according to the cell seeding procedure and protein harvesting procedure in Table II-2.
(2) To the collected supernatant, 5×SDS sample loading buffer was added, followed by denaturation at 95 °C for 5 minutes. The denatured samples were then separated by SDS-PAGE electrophoresis on a polyacrylamide gel. Proteins were transferred to a nitrocellulose membrane (0.45 μm NC membrane), blocked with blocking buffer at room temperature for 1 hour, and subjected to antibody incubation and development procedures according to the antibody manufacturer's instructions (Cell Signaling Technology).
Half-Maximal Degradation Concentration value (the drug concentration required for degrading proteins by 50%, abbreviated as DC50) reads method: comparing the grayscale values of Western blot bands from drug-treated samples with those from blank DMSO-treated controls, and identifying the drug concentration range at which the grayscale value is half that of the DMSO-treated control bands.
DC50 values can be calculated using ImageJ software to measure grayscale values of Western blot bands from drug-treated samples. The concentration-response curve is fitted to estimate the drug concentration corresponding to half the grayscale value.
Target protein remaining (%) refers to the percentage of target protein remaining in cells after treatment with protein degrader compounds.
Calculation method for target protein remaining (%): Use ImageJ software to measure grayscale values of Western blot bands from drug (protein degrader)-treated samples. The grayscale value of drug-treated bands is divided by that of internal control protein bands, and the resulting quotient is normalized to obtain the relative percentage of remaining target protein after protein degrader treatment.
Target protein degradation rate (%)=1−target protein remaining (%).

SMILES | Degradation of substrate protein IRAK4 (substrate protein remaining %) [2] | inhibition at 0.01 µM [1] | inhibition at 0.5 µM [1]
O=C1CCN(N2C(=O)c3ccc(N4C[C@H]5C[C@@H]4CN5C[C@H]4CC[C@H](n5cc(NC(=O)c6cnn7ccc(N8C[C@H]9C[C@@H]8CO9)nc67)c(C(F)F)n5)CC4)cc3C2=O)C(=O)N1 [GT-05238, 5-((1R,4R)-2-oxa-5-azabicyclo[2.2.1]heptan-5-yl)-N-(3-(difluoromethyl)-1-((1R,4R)-4-(((1R,4R)-5-(2-(2,4-dioxotetrahydropyrimidin-1(2H)-yl)-1,3-dioxoisoindolin-5-yl)-2,5-diazabicyclo[2.2.1]heptan-2-yl)methyl)cyclohexyl)-1H-pyrazol-4-yl)pyrazolo[1,5-a]pyrimidine-3-carboxamide] | A (0%≤substrate protein remaining %≤80%) | 20 to 36% | 60 to 80%
O=C1CCN(N2C(=O)c3cccc(N4CCC(CN5CCN(c6ccc7c(c6)nc(NC(=O)c6cccc(C(F)(F)F)c6)n7[C@H]6CC[C@@H](CO)CC6)CC5)CC4)c3C2=O)C(=O)N1 [GT-05325, N-(5-(4-((1-(2-(2,4-dioxotetrahydropyrimidin-1(2H)-yl)-1,3-dioxoisoindolin-4-yl)piperidin-4-yl)methyl)piperazin-1-yl)-1-((1s,4s)-4-(hydroxymethyl)cyclohexyl)-1H-benzo[d]imidazol-2-yl)-3-(trifluoromethyl)benzamide] | A (0%≤substrate protein remaining %≤80%) | -15 to -10% | 60 to 80%
COc1cc2nn(C3CCN(CC4CCN(c5cccc6c5C(=O)N(N5CCC(=O)NC5=O)C6=O)CC4)CC3)cc2cc1NC(=O)c1cccc(C(F)(F)F)n1 [GT-05817, N-(2-(1-((1-(2-(2,4-dioxotetrahydropyrimidin-1(2H)-yl)-1,3-dioxoisoindolin-4-yl)piperidin-4-yl)methyl)piperidin-4-yl)-6-methoxy-2H-indazol-5-yl)-6-(trifluoromethyl) picolinamide] | A (0%≤substrate protein remaining %≤80%) | -5 to 0% | 50 to 60%
COc1cc2nn([C@H]3CC[C@H](CN4CC5CCC4CN5c4ccc5c(c4)C(=O)N(N4CCC(=O)NC4=O)C5=O)CC3)cc2cc1NC(=O)c1cccc(C(F)(F)F)n1 (stereo partly shown) [GT-08660, N-(2-((1r,4r)-4-((5-(2-(2,4-dioxotetrahydropyrimidin-1(2H)-yl)-1,3-dioxoisoindolin-5-yl)-2,5-diazabicyclo[2.2.2]octan-2-yl)methyl)cyclohexyl)-6-methoxy-2H-indazol-5-yl)-6-(trifluoromethyl) picolinamide] | A (0%≤substrate protein remaining %≤80%) | – | –
COc1cc2nn([C@H]3CC[C@H](CN4C[C@@H]5C[C@H]4CN5c4ccc5c(c4)C(=O)N(N4CCC(=O)NC4=O)C5=O)CC3)cc2cc1NC(=O)c1cccc(C(F)(F)F)c1 [GT-08662, N-(2-((1S,4r)-4-(((1S,4S)-5-(2-(2,4-dioxotetrahydropyrimidin-1(2H)-yl)-1,3-dioxoisoindolin-5-yl)-2,5-diazabicyclo[2.2.1]heptan-2-yl)methyl)cyclohexyl)-6-methoxy-2H-indazol-5-yl)-3-(trifluoromethyl)benzamide] | A (0%≤substrate protein remaining %≤80%) | – | –
COc1cc2nn([C@H]3CC[C@H](CN4CCN(C5CCN(c6ccc7c(c6)C(=O)N(N6CCC(=O)NC6=O)C7=O)CC5)CC4)CC3)cc2cc1NC(=O)c1cccc(C(F)(F)F)c1 [GT-08671, N-(2-((1r,4r)-4-((4-(1-(2-(2,4-dioxotetrahydropyrimidin-1(2H)-yl)-1,3-dioxoisoindolin-5-yl)piperidin-4-yl)piperazin-1-yl)methyl)cyclohexyl)-6-methoxy-2H-indazol-5-yl)-3-(trifluoromethyl)benzamide] | A (0%≤substrate protein remaining %≤80%) | – | –

More lines, main results first:

Degradation of substrate protein IRAK4 (substrate protein remaining %) [2] | SMILES | inhibition at 0.01 µM [1] | inhibition at 0.5 µM [1]
A (0%≤substrate protein remaining %≤80%) | COc1cc2nn([C@H]3CC[C@H](CN4C5CC4CN(c4ccc6c(c4)C(=O)N(N4CCC(=O)NC4=O)C6=O)C5)CC3)cc2cc1NC(=O)c1cccc(C(F)(F)F)c1 [GT-08666, N-(2-((1r,4r)-4-((3-(2-(2,4-dioxotetrahydropyrimidin-1(2H)-yl)-1,3-dioxoisoindolin-5-yl)-3,6-diazabicyclo[3.1.1]heptan-6-yl)methyl)cyclohexyl)-6-methoxy-2H-indazol-5-yl)-3-(trifluoromethyl)benzamide] | – | –
A (0%≤substrate protein remaining %≤80%) | COc1cc2nn([C@H]3CC[C@H](CN4CCN(c5cc(F)c6c(c5)C(=O)N(N5CCC(=O)NC5=O)C6=O)CC4)CC3)cc2cc1NC(=O)c1cccc(C(F)(F)F)c1 [GT-08670, N-(2-((1r,4r)-4-((4-(2-(2,4-dioxotetrahydropyrimidin-1(2H)-yl)-7-fluoro-1,3-dioxoisoindolin-5-yl)piperazin-1-yl)methyl)cyclohexyl)-6-methoxy-2H-indazol-5-yl)-3-(trifluoromethyl)benzamide] | – | –
A (0%≤substrate protein remaining %≤80%) | COc1cc2nn([C@H]3CC[C@H](CN4CCN(C5CCN(c6ccc7c(c6)C(=O)N(N6CCC(=O)NC6=O)C7=O)CC5(F)F)CC4)CC3)cc2cc1NC(=O)c1cccc(C(F)(F)F)c1 (stereo partly shown) [GT-08672, N-(2-((1r,4r)-4-((4-(1-(2-(2,4-dioxotetrahydropyrimidin-1(2H)-yl)-1,3-dioxoisoindolin-5-yl)-3,3-difluoropiperidin-4-yl)piperazin-1-yl)methyl)cyclohexyl)-6-methoxy-2H-indazol-5-yl)-3-(trifluoromethyl)benzamide] | – | –
A (0%≤substrate protein remaining %≤80%) | COc1cc2nn([C@H]3CC[C@H](CN4CC5CCC4CN5c4ccc5c(c4)C(=O)N(N4CCC(=O)NC4=O)C5=O)CC3)cc2cc1NC(=O)c1cccc(C(F)(F)F)c1 (stereo partly shown) [GT-08673, N-(2-((1r,4r)-4-((5-(2-(2,4-dioxotetrahydropyrimidin-1(2H)-yl)-1,3-dioxoisoindolin-5-yl)-2,5-diazabicyclo[2.2.2]octan-2-yl)methyl)cyclohexyl)-6-methoxy-2H-indazol-5-yl)-3-(trifluoromethyl)benzamide] | – | –
